Two molecules from patent US20140142185A1, “3-Benzyloxyphenyloxoacetic Acid Compounds for Reducing Uric Acid” (priority 2011, published 2014) can be followed below.

The target in the test is T1, Human URAT1 (Homo sapiens, UniProt Q96S37).
T1 construct: The full-length hURAT1 cDNA was obtained from the vector pCMV6-XL5 and subcloned into the expression vector pCMV6-Neo
T1 sequence (Q96S37 1-553): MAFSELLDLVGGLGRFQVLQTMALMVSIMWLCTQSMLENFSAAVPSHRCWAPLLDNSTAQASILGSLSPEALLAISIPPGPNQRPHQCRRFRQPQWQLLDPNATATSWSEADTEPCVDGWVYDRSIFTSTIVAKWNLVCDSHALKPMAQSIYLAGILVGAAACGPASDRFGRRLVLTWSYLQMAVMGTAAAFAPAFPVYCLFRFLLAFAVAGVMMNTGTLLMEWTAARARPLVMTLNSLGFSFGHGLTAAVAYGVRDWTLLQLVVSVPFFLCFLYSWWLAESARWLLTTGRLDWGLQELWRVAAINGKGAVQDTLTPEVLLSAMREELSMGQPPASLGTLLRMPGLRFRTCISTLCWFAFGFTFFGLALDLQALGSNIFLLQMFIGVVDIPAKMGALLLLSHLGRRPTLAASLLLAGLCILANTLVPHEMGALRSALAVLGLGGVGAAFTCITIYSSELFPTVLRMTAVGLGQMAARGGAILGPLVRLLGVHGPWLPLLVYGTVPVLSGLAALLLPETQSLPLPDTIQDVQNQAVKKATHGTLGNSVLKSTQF
Nature of the test: URAT1 inhibition assay: [8-14C] urate uptake in hURAT1-expressing HEK293 cells. In kind it is cell-based. Conditions: for inhibition at 10 µM: Human URAT1-Expressing HEK293 cells, 50 μM [8-14C] urate, 5 min, read-out: % Inhibition of uric acid uptake. The protocol: An in vitro URAT1 assay is useful for identifying compounds with potential activity in lowering serum uric acid. A suitable assay involves transfection of cells (e.g. human embryonic kidney cells; “HEK”) with a vector encoding human URAT1, followed by determination of the ability of transfected cells to take up radiolabeled uric acid. The activity of compounds as URAT1 inhibitors is evaluated by their ability to block uric acid uptake by transfected cells.
Plasmid vector pCMV6-XL5 containing hURAT1 cDNA (Cat. No. SC125624) and the expression vector pCMV6-Neo (Cat. No. pCMVNEO) were obtained from OriGene Technologies, Inc. The full-length hURAT1 cDNA was obtained from the vector pCMV6-XL5 and subcloned into the expression vector pCMV6-Neo to create the hURAT1 expression plasmid pCMV6-hURAT1. The sequences were verified by automatic DNA sequencing.
Human embryonic kidney 293 (HEK) cells (ATTCC, Cat No. CRL-1573) were cultured in EMEM supplemented with 10% FBS and 2 mM L-glutamine and incubated at 37° C. and 5% CO2. For transfection experiments, cells were plated on 60 mm dishes in 1 ml media per dish. After an 18-24 hour incubation, cells were transfected with plasmid pCMV6-hURAT1 or the expression vector pCMV6-Neo, using the Lipofectin trasfection agent following the manufacturer's instructions (Invitrogen, Cat. No. 18292). After transfection cells were grown in EMEM media for 72 hours and then by adding 1 mg/ml Geneticin (GIBCO, Cat. No 10131) stable transfectants were selected. […]
hURAT1-HEK cells and mock-HEK cells were plated in poly-D-Lysine Cell culture 24 well plates (Becton Dickinson, Cat. No. 354414) at a concentration of 3×10^5 in EMEM medium and incubated overnight. […] The cell lysates were transferred into the scintillation vials containing 1 ml of scintillation fluid (Opti Phase SuperMIX, PerkinElmer, Cat No. 1200-439) and the radioactivity was counted in the Microbeta counter (1450, Wallac Jet, PerkinElmer). […] The radioactivity values obtained for the wells that contained DMSO were taken as 100% uptake of the cells. […]

For `Cc1ccc(C(=O)C(=O)O)cc1OCc1c(C)cccc1C` [Cpd. FF, 2-(3-(2,6-dimethylbenzyloxy)-4-methylphenyl)-2-oxoacetic acid], the inhibition at 10 µM was 87.4%. The molecule also returned an IC50 (uric acid uptake in hURAT1-HEK cells) of 1.28 µM.
As to `COc1ccc(C(=O)C(=O)O)cc1OCc1c(C)cccc1C` [Cpd. FG, 2-(3-(2,6-dimethylbenzyloxy)-4-methoxyphenyl)-2-oxoacetic acid], the inhibition at 10 µM stood at 67.1%.

For orientation: inhibition means the drop in the measured response relative to a control, in per cent. Broadly, the IC50 is the concentration needed to halve the response being measured.
